Reference: patent publication US20240033244A1, “COMPOSITIONS AND METHODS FOR INHIBITING YTHDF1” (SHANGHAI INSTITUTE OF MATERIA MEDICA, CHINESE ACADEMY OF …, priority 2020, published 2024)

Assays:
[1] = system: classical DCs in draining lymph node; experiment: Ex vivo direct-priming by DCs sorted from draining lymph node of treated mice with OT-I peptide; type: in vivo, mouse; conditions: four DC subtypes from SAA treated mice, 1 μg/mL OT-I peptide
Protocol: For in vitro cross-presentation study, mature FLT3L-DCs were harvested on day 9 and purified by EasySep Mouse CD11 c Positive Selection Kit II, then treated with 10 μM SAA or DMSO in IMDM medium (contain 10% bovine and 100 ng/mL FLT3L) for 10 h. […] Then antigen-obtained DCs were purified and co-cultured with naïve T cells from OT-1 mice at a ratio of 1:10 for 96 h. The co-culture medium was 1640 RPMI contains 10% fetal bovine with or without 1 μg/mL OT-1 (OVA 257-264) peptide. For ex vivo DCs cross-presentation assay, four types of DCs (migration CD11b DC, migration CD103′ DC, resident CD11b DC and resident CD8^+ DC) were sorted in draining lymph node from SAA treated B16-OVA bearing mice at day 12. These DCs were co-cultured with OT-1 naïve T cells in the ratio of 1:10 for 96 hours with or without OT-1 peptide. Supernatant IFN-γ production was detected via CBA assay.
Dendritic cells can activate T cells through cross-priming and/or direct-priming. In direct-priming process, DCs could stimulate T cells via surface co-stimulatory molecules such as CD80/CD86 or cytokines related with T cell activation. […] IFN-γ production was assessed by IFN-γ cytometric bead array. […] Then, IFN-γ production was assessed by IFN-γ cytometric bead array.

B16-OVA tumor = B16-OVA tumor growth in Rag1-/- versus wild-type mice; type: in vivo, mouse; conditions: 1×10^5 B16-OVA, 10 μM SAA day 7 to day 9
Protocol: For B6 mice tumor growth, 5×10^5 B16-OVA or 1×10^6 E.G7-OVA tumor cells were inoculated subcutaneously (s.c.) into the flank of mice. Tumor length (a) and width (b) was measured every two days and tumor volume was calculated by the formula ab^2/2. For the inhibitor treatment, 10 μM SAA or DMSO was injected intraperitoneally (i.p.) on day 9 and 11 after tumor inoculation. For other mice model (rag1^−/− and Ythdf1 conditional knockout), times and dose of inhibitor treatment was the same. For α-PD-L1 and SAA combination treatment, 5×10^5 B16-OVA tumor cells were inoculated subcutaneously into the flank of mice. 100 μg α-PD-L1 antibody (clone 10F.9G2) or rat immunoglobulin were administered at day 9 after tumor inoculation. 10 μM SAA or DMSO was administered in the same way on day 9 and 11 after tumor injection.
T/B cell-deficient Rag1^−/− mice were inoculated with 1×10^5 B16-OVA cells, and 10 μM SAA was then injected to each mouse from day 7 to day 9, and tumor growth was monitored, wild type mice were used as control group.

YTHDF1 (361-559) [2] = molecular target: T1, YTHDF1 (361-559) (Homo sapiens, UniProt Q9BYJ9); experiment: Hydrogen deuterium exchange mass spectrometry (HDX MS); type: binding; conditions: HDX 10 s to 14400 s; many peptides HDX variation over 5%
T1 construct: GST (N, cleaved yes); made in house; host or cells: E. coli BL21 (DE3)
T1 sequence (Q9BYJ9 with tags, fused parts or gaps): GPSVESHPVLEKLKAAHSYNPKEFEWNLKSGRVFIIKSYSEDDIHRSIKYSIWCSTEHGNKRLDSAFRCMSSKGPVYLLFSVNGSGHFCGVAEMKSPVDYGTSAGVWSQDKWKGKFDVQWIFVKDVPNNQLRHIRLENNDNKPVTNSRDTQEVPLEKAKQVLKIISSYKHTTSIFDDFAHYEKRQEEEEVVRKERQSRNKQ
Protocol: YTHDF1 (361-559) was incubated with the compound (e.g., SAA) at 4° C. overnight before the measurement. In hydrogen deuterium exchange mass spectrometry (HDX MS), the hydrogen atoms of YTHDF1 (361-559)-apo and YTHDF1 (361-559)-SAA were exchanged with deuterium for 0 s, 10 s, 30 s, 60 s, 1200 s, 3600 s and 14400 s respectively at 10° C. in buffer containing 20 mM Hepes (pH 7.4), 200 mM NaCl and D2O. And the reactions were stopped at 0.5° C. using buffer containing 4 M guanidine hydrochloride, 0.5 M TCEP and 100 mM citric acid (pH 2.3). After deuterium label reaction, the samples were digested at 4° C. by pepsin immobilized on the column in order to obtain peptides of the samples. These peptides were next separated by HPLC and analyzed via mass spectrometry, respectively. HDX MS data was analyzed in HDExaminer software (v2.4.1) and +5% were set as the threshold to pick out those peptides with significant change.
Then, hydrogen deuterium exchange mass spectrometry (HDX MS) experiment was conducted, to determine the binding sites of SAA on YTHDF1.

YTHDF1 (361-559) [3] = molecular target: T1, YTHDF1 (361-559); experiment: NMR CPMG binding experiment; conditions: 200 μM SAA; 5 μM, 10 μM and 20 μM YTHDF1
Protocol: NMR CPMG experiment was performed at 25° C. using Bruker Avance III spectrometer (600 MHz proton frequency) with a cryogenically cooled probe (Bruker biospin, Germany). YTHDF1 (361-559) was diluted to 20 μM, 10 μM and 5 μM in phosphate buffer (20 mM NaH2PO4, 20 mM Na2HPO4, 150 mM NaCl, pH 7.4, D2O). […] The solvent-suppressed 1D ^1H CPMG was obtained via the pulse sequence (RD-90°-(τ-180°-τ) n-ACQ). In the pre-saturation procedure, a 54.78 dB pulse in 4 s duration of the recycle delay (RD) was applied to eliminate water resonance. Then, the 900 pulse length was modulated to 11.82 μs approximately. And at last, a total of 4 dummy scans and 64 free induction decays (FIDs) were collected into […] acquisition points, covering a spectral width of 12 kHz (20 ppm) with the acquisition time (ACQ) of 2.73 s.
Then, qualitative and quantitative experiments were performed to explore the binding between SAA and YTHDF1. Firstly, nuclear magnetic resonance (NMR) Carr-Purcell-Meiboom-Gill (CPMG) experiments were conducted.

- conformational change of YTHDF1 on binding (deuterium uptake) (YTHDF1 (361-559) [2]): significant conformational changes
- CPMG signal of the compound on addition of YTHDF1 (YTHDF1 (361-559) [3]): signal decreased
Compound: O=C(/C=C/c1ccc(O)c(O)c1/C=C/c1ccc(O)c(O)c1)O[C@H](Cc1ccc(O)c(O)c1)C(=O)O [SAA, Salvianolic Acid A]
- direct-priming capacity of DC subtypes (IFN-γ production) [1]: 3 of the 4 DC subtypes showed improved direct-priming capacity
- tumor growth (B16-OVA tumor): tumor growth was arrested
